Consider 13 molecules from ChEMBL document CHEMBL4828763, “Discovery of Potent and Selective CDK9 Degraders for Targeting Transcription Regulation in Triple-Negative Breast Cancer” (J Med Chem, 2021).

Calls of active or inactive are those of the source. The rule behind the calls is not given here.

The subject of test [1] is MDA-MB-468. As to the kind of experiment: Growth inhibition of human MDA-MB-468 cells assessed as cell viability measured after 4 days by WST8 assay. In kind it is functional, cell-based. As to conditions: MDA-MB-468, 96 h.
Test [2] has as its system BT-549. As to the kind of experiment: Growth inhibition of human BT-549 cells assessed as cell viability measured after 4 days by WST8 assay. The format is functional, cell-based. Particulars: BT-549, 96 h.
Test [3] has as its system MDA-MB-231. As to the kind of experiment: Growth inhibition of human MDA-MB-231 cells assessed as cell viability measured after 4 days by WST8 assay. In kind it is functional, cell-based. Particulars: MDA-MB-231, 96 h.
Test [4] addresses Protein cereblon/Cyclin-dependent kinase 9 (Homo sapiens) (UniProt P50750+Q96SW2). As to the kind of experiment: Protac activity at CRBN/CDK9 in human MDA-MB-231 cells assessed as induction of degradation of CDK9 at 500 nM incubated for 8 hrs by Western blot analysis. The format is cell-based.

Protein cereblon/Cyclin-dependent kinase 9 (Homo sapiens), sequence (P50750 whole entry, looked up): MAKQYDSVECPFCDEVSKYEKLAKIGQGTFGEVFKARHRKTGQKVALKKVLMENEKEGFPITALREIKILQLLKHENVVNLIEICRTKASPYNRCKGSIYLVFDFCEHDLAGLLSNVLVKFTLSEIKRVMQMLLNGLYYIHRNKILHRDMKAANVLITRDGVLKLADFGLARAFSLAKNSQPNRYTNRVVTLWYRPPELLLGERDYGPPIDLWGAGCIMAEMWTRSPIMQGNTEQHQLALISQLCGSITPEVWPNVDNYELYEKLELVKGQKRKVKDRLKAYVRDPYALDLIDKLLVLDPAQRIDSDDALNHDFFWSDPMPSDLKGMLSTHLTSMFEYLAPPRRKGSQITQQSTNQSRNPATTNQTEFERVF
Protein cereblon/Cyclin-dependent kinase 9 (Homo sapiens), sequence (Q96SW2 whole entry, looked up): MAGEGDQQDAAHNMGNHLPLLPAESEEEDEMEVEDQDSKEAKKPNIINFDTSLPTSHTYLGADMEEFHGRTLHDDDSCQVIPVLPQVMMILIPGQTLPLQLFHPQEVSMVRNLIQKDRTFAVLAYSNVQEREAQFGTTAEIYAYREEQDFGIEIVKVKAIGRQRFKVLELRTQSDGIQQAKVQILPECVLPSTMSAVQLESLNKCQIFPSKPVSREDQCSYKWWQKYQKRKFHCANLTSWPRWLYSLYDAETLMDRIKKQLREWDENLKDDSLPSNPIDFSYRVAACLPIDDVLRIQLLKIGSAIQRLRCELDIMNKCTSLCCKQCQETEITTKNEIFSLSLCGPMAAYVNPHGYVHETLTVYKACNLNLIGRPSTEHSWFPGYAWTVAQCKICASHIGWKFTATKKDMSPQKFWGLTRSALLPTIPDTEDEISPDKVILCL

Turning to `CC(C)c1cnn2c(NCc3ccc(NC(=O)CCCCCCOc4cccc5c4CN(C4CCC(=O)NC4=O)C5=O)cc3)nc(OC3CCN(C)CC3)nc12` (stereo unspecified), the figures for the IC50 in test [1], in test [2] and in test [3] were 530 nM, 470 nM and 390 nM, respectively. Besides, the outcome in test [4] was Active.
Regarding `CC(C)c1cnn2c(NCc3ccc(NC(=O)CCCCCCCCCOc4cccc5c4CN(C4CCC(=O)NC4=O)C5=O)cc3)nc(OC3CCN(C)CC3)nc12` (stereo unspecified), the IC50 in test [1] was determined as 184 nM; in test [2], 35 nM; in test [3], 137 nM. Besides, the outcome in test [4] was Active.
Turning to `CC(C)c1cnn2c(NCc3ccc(NC(=O)CCCCCCCCOc4cccc5c4CN(C4CCC(=O)NC4=O)C5=O)cc3)nc(OC3CCN(C)CC3)nc12` (stereo unspecified), the IC50 was found to be 300 nM in test [1], 200 nM in test [2] and 170 nM in test [3]. Further, the result in test [4] was Active.
For the molecule `CC(C)c1cnn2c(NCc3ccc(NC(=O)CCCCCCOc4cccc5c4C(=O)N(C4CCC(=O)NC4=O)C5=O)cc3)nc(OC3CCN(C)CC3)nc12` (stereo unspecified), the values for the IC50 in test [1], in test [2] and in test [3] were 180 nM, 170 nM and 260 nM, respectively. The outcome in test [4] was Active.
`CC(C)c1cnn2c(NCc3ccc(NC(=O)CCCCCCCOc4cccc5c4CN(C4CCC(=O)NC4=O)C5=O)cc3)nc(OC3CCN(C)CC3)nc12` (stereo unspecified): the IC50 was found to be 104 nM in test [1], 40 nM in test [2] and 72 nM in test [3]. For the same molecule, the result in test [4] was Active.
With `CC(C)c1cnn2c(NCc3ccc(NC(=O)CCCCCCCCOc4cccc5c4C(=O)N(C4CCC(=O)NC4=O)C5=O)cc3)nc(OC3CCN(C)CC3)nc12` (stereo unspecified), the IC50 was 120 nM in test [1], 120 nM in test [2] and 130 nM in test [3]. Further, the outcome in test [4] was Active.
Regarding `CC(C)c1cnn2c(NCc3ccc(NC(=O)CCCCCCc4cccc5c4CN(C4CCC(=O)NC4=O)C5=O)cc3)nc(OC3CCN(C)CC3)nc12` (stereo unspecified), the IC50 in test [1] was 130 nM; in test [2] it was 230 nM; in test [3], 200 nM. For the same molecule, the result in test [4] was Active.
Take `CC(C)c1cnn2c(NCc3ccc(NC(=O)COCCOCCOCCOc4cccc5c4C(=O)N(C4CCC(=O)NC4=O)C5=O)cc3)nc(OC3CCN(C)CC3)nc12` (stereo unspecified): the figures for the half-maximal inhibitory concentration (IC50) in test [1], in test [2] and in test [3] were 4370 nM, 4690 nM and 10300 nM, respectively.
Taken in the same sequence, the figures for `CC(C)c1cnn2c(NCc3ccccc3)cc(NCCCCCCNCCOCCNC(=O)COc3cccc4c3C(=O)N(C3CCC(=O)NC3=O)C4=O)nc12` (stereo unspecified) were > 20000 nM, > 20000 nM and > 20000 nM.
For `CC(C)c1cnn2c(NCc3cc(CCCCCCNC(=O)COc4cccc5c4C(=O)N(C4CCC(=O)NC4=O)C5=O)ccc3N(C)C)nc(OC3CCN(C)CC3)nc12` (stereo unspecified), the IC50 in test [1] was 17900 nM; in test [2] it was 12600 nM; in test [3], 12600 nM.
Regarding `CC(C)c1cnn2c(NCc3ccccc3)nc(OC3CCN(CCOCCOCCNC(=O)COc4cccc5c4C(=O)N(C4CCC(=O)NC4=O)C5=O)CC3)nc12` (stereo unspecified), the IC50 in test [1] was > 20000 nM; in test [2] it was 9880 nM; in test [3], > 20000 nM.
For `CC(C)c1cnn2c(NCc3ccccc3N(C)C)nc(OC3CCN(CCOCCOCCOCCNC(=O)COc4cccc5c4C(=O)N(C4CCC(=O)NC4=O)C5=O)CC3)nc12` (stereo unspecified), the IC50 in test [1], in test [2] and in test [3] was > 20000 nM throughout.
With `CC(C)c1cnn2c(NCc3ccc(NC(=O)CCCCCN4CCN(CCCCCc5cccc6c5CN(C5CCC(=O)NC5=O)C6=O)CC4)cc3)nc(OC3CCN(C)CC3)nc12` (stereo unspecified), the half-inhibitory concentration (IC50) in test [1] was found to be 222 nM; in test [2], 80 nM; in test [3] it was 251 nM.
